The results in this text go back to US12630540B2, “(4-(6-((2-octahydrocyclopenta[c]pyrrol-5-yl)amino)pyridazin-3-yl)phenyl)(imino)(methyl)-LAMBDA6-sulfanone derivatives and similar compounds as muscarinic acetylcholine receptor M4 antagonists for the treatment of neurodegenerative disorders” (Vanderbilt University, priority 2021, dated 2026).

The IC50 is the concentration that gives 50% inhibition.

The experiment concerns the target T1, Human M4 (Homo sapiens, UniProt P08173).
T1 construct: expressed in transfected cells; host or cells: CHO-K1 (ATCC), stably expressing M4 and Gqi5
T1 sequence (P08173 1-479): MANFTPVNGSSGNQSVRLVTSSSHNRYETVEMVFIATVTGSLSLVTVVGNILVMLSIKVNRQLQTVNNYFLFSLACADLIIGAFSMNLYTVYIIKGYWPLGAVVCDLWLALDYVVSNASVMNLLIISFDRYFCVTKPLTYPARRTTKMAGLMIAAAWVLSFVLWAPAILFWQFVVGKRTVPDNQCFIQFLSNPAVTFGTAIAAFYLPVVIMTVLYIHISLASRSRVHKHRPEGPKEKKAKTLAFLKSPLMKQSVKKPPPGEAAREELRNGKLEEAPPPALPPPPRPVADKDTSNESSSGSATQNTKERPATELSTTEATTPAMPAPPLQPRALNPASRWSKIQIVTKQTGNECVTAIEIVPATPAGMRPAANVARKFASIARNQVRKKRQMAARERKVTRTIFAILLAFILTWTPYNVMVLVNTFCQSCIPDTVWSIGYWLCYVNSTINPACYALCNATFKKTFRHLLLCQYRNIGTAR
The experiment in a line: mAChR M4 cell-based functional assay (calcium flux, antagonism of EC80 acetylcholine response). As to conditions: M4/Gqi5 CHO-K1 cells; for Human M4 Emin: % ACh maximum at 30 μM; for IC50: decrease of the response elicited by an EC80 concentration of acetylcholine. On the procedure: Human or rat M4 cDNA, along with the chimeric G protein Gqi5, were transfected into Chinese hamster ovary (CHO-K1) cells purchased from the American Type Culture Collection using Lipofectamine2000. M4/Gqr5/CHO cells were grown in Ham's F-12 medium containing 10% heat-inactivated fetal bovine serum (FBS), 20 mM HEPES, 500 μg/mL G418 sulfate, and 200 μg/mL Hygromycin B.
For high throughput measurement of agonist-evoked increases in intracellular calcium, CHO-K1 cells stably expressing muscarinic receptors were plated in growth medium lacking G418 and hygromycin at 15,000 cells/20 μL/well in Greiner 384-well black-walled, tissue culture (TC)-treated, clear-bottom plates (VWR). Cells were incubated overnight at 37° C. and 5% CO2. The next day, cells were washed using an ELX 405 (BioTek) with assay buffer; the final volume was then aspirated to 20 μL. Next, 20 μL of a 2.3 μM stock of Fluo-4/acetoxymethyl ester (Invitrogen, Carlsbad, CA), prepared as a 2.3 mM stock in DMSO and mixed in a 1:1 ratio with 10% (w/v) Pluronic F-127 and diluted in assay buffer, was added to the wells and the cell plates were incubated for 50 min at 37° C. and 5% CO2. Dye was removed by washing with the ELX 405 and the final volume was aspirated to 20 μL. Compound master plates were formatted in a 10 point concentration-response curve (CRC) format (1:3 dilutions) in 100% DMSO with a starting concentration of 10 or 1 mM using a BRAVO liquid handler (Agilent). Test compound CRCs were then transferred to daughter plates (240 nL) using the Echo acoustic plate reformatter (Labcyte, Sunnyvale, CA) and then diluted into assay buffer (40 μL) to a 2× stock using a Thermo Fisher Combi (Thermo Fisher Scientific, Waltham, MA).
Calcium flux was measured using the Functional Drug Screening System (FDSS) 6000 or 7000 (Hamamatsu Corporation, Tokyo, Japan) as an increase in the fluorescent static ratio. Compounds were applied to cells (20 μL, 2×) using the automated system of the FDSS at 2 seconds into the protocol and the data were collected at 1 Hz. At 143 s, 10 μL of an EC20 concentration of the muscarinic receptor agonist acetylcholine was added (5×), followed by the addition of 12 μL of an EC80 concentration of acetylcholine at the 268 s time point (5×). Agonist activity was analyzed as a concentration-dependent increase in calcium mobilization upon compound addition. Positive allosteric modulator activity was analyzed as a concentration-dependent increase in the EC20 acetylcholine response. Antagonist activity was analyzed as a concentration-dependent decrease in the EC80 acetylcholine response; for the purposes of the tables herein, an IC50 (inhibitory concentration 50) was calculated as a concentration-dependent decrease of the response elicited by an EC80 concentration of acetylcholine. Concentration-response curves were generated using a four-parameter logistical equation in XLFit curve fitting software (IDBS, Bridgewater, NJ) for Excel (Microsoft, Redmond, WA) or Prism (GraphPad Software, Inc., San Diego, CA) or the Dotmatics software platform (Dotmatics, Bishop's Stortford, UK).
Compounds were synthesized as described above. Activity (IC50 and Emin) was determined in the mAChR M4 cell-based functional assay as described above and the data are shown in Table 2.
Background: Calcium flux is commonly read through the fluorescence of an indicator in the cells.

Consider `[2H]C([2H])(C1CC(C)(C)OC(C)(C)C1)N1C[C@H]2C[C@H](Nc3ccc(-c4cc(F)c(S(C)(=N)=O)cc4F)nn3)C[C@H]2C1` (stereo partly drawn) [compound 11, (2,5-difluoro-4-(6-(((3aR,5s,6aS)-2-((2,2,6,6-tetramethyltetrahydro-2H-pyran-4-yl)methyl-d2)octahydrocyclopenta[c]pyrrol-5-yl)amino)pyridazin-3-yl)phenyl)(imino)(methyl)-λ^6-sulfanone], for which the “Human M4 Emin” value came out at 3% and the half-maximal inhibitory concentration (IC50) came out at 86.2 nM.
The like results for `[2H]C([2H])(C1CCOCC1)N1C[C@H]2C[C@H](Nc3ccc(-c4cc(F)c(S(C)(=N)=O)cc4F)nn3)C[C@H]2C1` (stereo partly drawn) [compound 1, (2,5-difluoro-4-(6-(((3aR,5s,6aS)-2-((tetrahydro-2H-pyran-4-yl)methyl-d2)octahydrocyclopenta[c]pyrrol-5-yl)amino)pyridazin-3-yl)phenyl)(imino)(methyl)-λ^6-sulfanone] were, in that order, 4% and 13.4 nM.
Consider `[2H]C([2H])([2H])N=S(C)(=O)c1cc(F)c(-c2ccc(N[C@H]3C[C@@H]4CN(C([2H])([2H])C5CCOCC5)C[C@@H]4C3)nn2)cc1F` (stereo partly drawn) [compound 3, (2,5-difluoro-4-(6-(((3aR,5s,6aS)-2-((tetrahydro-2H-pyran-4-yl)methyl-d2)octahydrocyclopenta[c]pyrrol-5-yl)amino)pyridazin-3-yl)phenyl)(methyl)((methyl-d3)imino)-λ^6-sulfanone], for which the “Human M4 Emin” value was found to be 3% and the IC50 worked out at 18.5 nM.
Consider `[2H]C([2H])(C1CCOCC1)N1C[C@H]2C[C@H](Nc3ccc(-c4ccc(S(C)(=N)=O)cc4F)nn3)C[C@H]2C1` (stereo partly drawn) [compound 5, (3-fluoro-4-(6-(((3aR,5s,6aS)-2-((tetrahydro-2H-pyran-4-yl)methyl-d2)octahydrocyclopenta[c]pyrrol-5-yl)amino)pyridazin-3-yl)phenyl)(imino)(methyl)-λ^6-sulfanone], for which the “Human M4 Emin” value is 3% and the IC50 came out at 75.4 nM.
As for `CS(=N)(=O)c1cc(F)c(-c2ccc(N[C@H]3C[C@@H]4CN(CC5CCCCC5)C[C@@H]4C3)nn2)cc1F` (stereo partly drawn) [compound 10, (4-(6-(((3aR,5s,6aS)-2-(cyclohexylmethyl)octahydrocyclopenta[c]pyrrol-5-yl)amino)pyridazin-3-yl)-2,5-difluorophenyl)(imino)(methyl)-λ^6-sulfanone], the “Human M4 Emin” value was determined as 2% and the IC50 turned out to be 1.8 nM.
On to `CS(=N)(=O)c1cc(F)c(-c2ccc(N[C@H]3C[C@@H]4CN(CCC5CCOCC5)C[C@@H]4C3)nn2)cc1F` (stereo partly drawn) [compound 9, (2,5-difluoro-4-(6-(((3aR,5s,6aS)-2-(2-(tetrahydro-2H-pyran-4-yl)ethyl)octahydrocyclopenta[c]pyrrol-5-yl)amino)pyridazin-3-yl)phenyl)(imino)(methyl)-λ^6-sulfanone], for which the “Human M4 Emin” value is on record as 3% and the half-maximal inhibitory concentration (IC50) stood at 18.4 nM.
With `CS(=N)(=O)c1cc(F)c(-c2ccc(N[C@H]3C[C@@H]4CN(CC5CCOCC5)C[C@@H]4C3)nn2)cc1F` (stereo partly drawn) [compound 7, (2,5-difluoro-4-(6-(((3aR,5s,6aS)-2-((tetrahydro-2H-pyran-4-yl)methyl)octahydrocyclopenta[c]pyrrol-5-yl)amino)pyridazin-3-yl)phenyl)(imino)(methyl)-λ^6-sulfanone], the “Human M4 Emin” value is given as 3% and the 50% inhibitory concentration (IC50) came out at 40 nM.
Regarding `[2H]C([2H])(C1CCOCC1)N1C[C@H]2C[C@H](Nc3ccc(-c4ccc(S(C)(=N)=O)c(F)c4)nn3)C[C@H]2C1` (stereo partly drawn) [compound 6, (2-fluoro-4-(6-(((3aR,5s,6aS)-2-((tetrahydro-2H-pyran-4-yl)methyl-d2)octahydrocyclopenta[c]pyrrol-5-yl)amino)pyridazin-3-yl)phenyl)(imino)(methyl)-λ^6-sulfanone], the “Human M4 Emin” value turned out to be 3% and the concentration for half-maximal inhibition (IC50) worked out at 188 nM.
As for `[2H]C([2H])(C1CCOCC1)N1C[C@H]2C[C@H](Nc3ccc(-c4ccc(S(C)(=N)=O)cc4)nn3)C[C@H]2C1` (stereo partly drawn) [compound 2, imino(methyl)(4-(6-(((3aR,5s,6aS)-2-((tetrahydro-2H-pyran-4-yl)methyl-d2)octahydrocyclopenta[c]pyrrol-5-yl)amino)pyridazin-3-yl)phenyl)-λ^6-sulfanone], the “Human M4 Emin” value came to 2% and the IC50 came to 39.6 nM.
For `CS(=N)(=O)c1cc(F)c(-c2ccc(N[C@H]3C[C@@H]4CN(Cc5ccccn5)C[C@@H]4C3)nn2)cc1F` (stereo partly drawn) [compound 8, (2,5-difluoro-4-(6-(((3aR,5s,6aS)-2-(pyridin-2-ylmethyl)octahydrocyclopenta[c]pyrrol-5-yl)amino)pyridazin-3-yl)phenyl)(imino)(methyl)-λ^6-sulfanone], in that order: 7% and 560 nM.
Take `[2H]C([2H])(C1CCOCC1)N1C[C@H]2C[C@H](Nc3ccc(-c4cc(F)c(S(C)(=O)=NC(C)=O)cc4F)nn3)C[C@H]2C1` (stereo partly drawn) [compound 4, N-((2,5-difluoro-4-(6-(((3aR,5s,6aS)-2-((tetrahydro-2H-pyran-4-yl)methyl-d2)octahydrocyclopenta[c]pyrrol-5-yl)amino)pyridazin-3-yl)phenyl)(methyl)(oxo)-λ^6-sulfaneylidene)acetamide]: the “Human M4 Emin” value was 6% and the 50% inhibitory concentration (IC50) was determined as 584 nM.
The like results for `[2H]C([2H])(C1CCOCC1)N1C[C@H]2C[C@H](Nc3ccc(-c4ccc(S(C)(=N)=O)c(C(F)(F)F)c4)nn3)C[C@H]2C1` (stereo partly drawn) [compound 13, imino(methyl)(4-(6-(((3aR,5s,6aS)-2-((tetrahydro-2H-pyran-4-yl)methyl-d2)octahydrocyclopenta[c]pyrrol-5-yl)amino)pyridazin-3-yl)-2-(trifluoromethyl)phenyl)-λ^6-sulfanone] were, in that order, 3% and 8.6 nM.
Regarding `[2H]C([2H])(C1CCOCC1)N1C[C@H]2C[C@H](Nc3ccc(-c4ccc(S(C)(=O)=NC(F)(F)F)cc4)nn3)C[C@H]2C1` (stereo partly drawn) [compound 12, methyl(4-(6-(((3aR,5s,6aS)-2-((tetrahydro-2H-pyran-4-yl)methyl-d2)octahydrocyclopenta[c]pyrrol-5-yl)amino)pyridazin-3-yl)phenyl)((trifluoromethyl)imino)-λ^6-sulfanone], the “Human M4 Emin” value was 2% and the concentration for half-maximal inhibition (IC50) turned out to be 43.4 nM.
